What all share (format): in vivo
The subject of assay [1] is leafminer fly (Liriomyza trifolii) larvae. As to the kind of experiment: Liriomyza trifolii test, spraying of kidney bean plants. Particulars: 100 ppm, spray on kidney bean plants. How it is done:
To prepare a suitable active compound preparation 1 part by weight of the active compound is mixed with the given amount of solvent and emulsifier and the concentrate is diluted to the desired concentration with water containing emulsifier.
Kidney bean plants (Phaseolus vulgaris) that are infected with the larvae of the leafminer fly (Liriomyza trifolii) are treated by spraying with the active compound mixture at the desired concentration.
After the desired time the activity in % is determined.

In assay [2] the test system is black bean aphid (Aphis fabae). The assay can be described thus: Aphis fabae test (seed application), Example J. Conditions: 90 g ai/unit (100,000 seeds), sugar beet seed treatment. How it is done: (§1) To prepare a suitable active compound preparation 1 part by weight of the active compound is mixed with the given amount of solvent and emulsifier and the concentrate is diluted to the desired concentration with water.
Sugar beet seed (Beta vulgaris) is treated with the active compound preparation and sown into soil. After ca. 4 week the beet plants are infected with the black bean aphid (Aphis fabae).
(§2) After the desired time the death rate in % is determined. Here 100% means that all aphids were killed; 0% means that no aphids were killed.

The subject of assay [3] is black bean aphid (Aphis fabae). As to the kind of experiment: Aphis fabae test (seed application), Example D1. Conditions: 90 g per unit (100,000 seeds), sugar beet seed. On the procedure: as §1
Sugar beet seed (Beta vulgaris) is treated with the active compound preparation and sown into the earth. After ca. 4 weeks the beet plants are infected with the black bean aphid (Aphis fabae).
as §2

“And” between values parts separate entries of the source, which are not always exact repeats. Equal values may be shown once.

As for `CN(Cc1ccc(Cl)nc1)C1=CC(=O)OC1` [Compound 84], the “Activity in % after 7 d” value in assay [1] was 55% and 46%; in assay [2], 100%. For `O=C1C=C(N(Cc2ccc(Cl)nc2)C2CC2)CO1` [Compound 88], the “death rate after 7 days” value in assay [3] amounted to 100%.

Values taken from patent US20080280953A1, “Agents Used for the Treatment of Seeds” (Bayer Cropscience AG, priority 2004, published 2008).
